The supplement of paper PMC10307832

Columns and labels:
Experiment in all cases: relative viability (nuclei count vs DMSO), 5 days (fraction); higher = more cells survive
[1] = compound: CC[C@H](C)N1C=C(C2=C(C=C(C=C21)C3=CN=C(C=C3)N4CCNCC4)C(=O)NCC5=C(C=C(NC5=O)C)C)C [GSK126] + Cc1cc(Nc2cc(N3CCN(C)CC3)nc(Sc3ccc(NC(=O)C4CC4)cc3)n2)n[nH]1 [Tozasertib] (partner 0.1 µM)
In short: (§1)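 One day after seeding in 1536-well plates, lung cancer cell lines were dosed by pin tool. Dosing was either single-drug or a fixed anchor-drug dose plus five library-drug doses (not always all listed) in √10 steps. After 5 days, nuclei were stained in one fix-and-stain step and counted on 4× images, and relative viability is the nuclei count of treated wells over that of vehicle wells, given as the median of duplicate plates.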

[2] = compound: C1CC(C1)(C(=O)O)C(=O)O.[NH2-].[NH2-].[Pt+2] [Carboplatin] + COc1cccc2cc(-c3nc([C@H]4CC[C@H](C(=O)O)CC4)n4ncnc(N)c34)[nH]c12 [OSI-027] (partner 0.5 µM)
In short: as §1

[3] = compound: NS(=O)(=O)OC[C@@H]1C[C@@H](n2ccc3c(N[C@H]4CCc5ccccc54)ncnc32)C[C@@H]1O [MLN4924] + C[C@@H](Oc1cc(-c2cnn(C3CCNCC3)c2)cnc1N)c1c(Cl)ccc(F)c1Cl [Crizotinib] (partner 1 µM)
In short: as §1

[4] = compound: NS(=O)(=O)OC[C@@H]1C[C@@H](n2ccc3c(N[C@H]4CCc5ccccc54)ncnc32)C[C@@H]1O [MLN4924] + O=C(CCCCCCC(=O)Nc1ccccc1)NO [Vorinostat] (partner 1 µM)
In short: as §1

Row | Cell Line | relative viability ([1]; first compound 0.08 µM) | relative viability ([1]; first compound 0.253 µM) | relative viability ([1]; first compound 0.8 µM) | relative viability ([1]; first compound 2.53 µM) | relative viability ([1]; first compound 8 µM) | relative viability ([2]; first compound 0.08 µM) | relative viability ([2]; first compound 0.253 µM) | relative viability ([2]; first compound 0.8 µM) | relative viability ([2]; first compound 2.53 µM) | relative viability ([2]; first compound 8 µM) | relative viability ([3]; first compound 0.04 µM) | relative viability ([3]; first compound 0.1265 µM) | relative viability ([3]; first compound 0.4 µM) | relative viability ([3]; first compound 1.265 µM) | relative viability ([3]; first compound 4 µM) | relative viability ([4]; first compound 0.04 µM) | relative viability ([4]; first compound 0.1265 µM) | relative viability ([4]; first compound 0.4 µM) | relative viability ([4]; first compound 1.265 µM) | relative viability ([4]; first compound 4 µM)
1 | SK-MES-1 | 0.852 | 0.988 | 0.937 | 0.813 | 0.81 | 0.684 | 0.609 | 0.699 | 0.628 | 0.553 | 1.02 | 0.842 | 0.702 | 0.228 | 0.22 | 1.14 | 1.02 | 0.351 | 0.162 | 0.216
2 | NCI-H1648 | 0.386 | – | 0.478 | 0.518 | 0.321 | 0.238 | 0.258 | 0.247 | – | 0.265 | – | – | – | – | – | 0.249 | 0.296 | 0.276 | 0.224 | 0.309
3 | PC-14 | 0.614 | 0.674 | 0.639 | 0.535 | 0.403 | 0.864 | 0.923 | 0.716 | 0.369 | 0.133 | 0.872 | 0.888 | 0.591 | 0.161 | 0.109 | 0.81 | 0.781 | 0.154 | 0.0306 | 0.0361
4 | NCI-H1651 | 0.717 | 0.728 | 0.864 | 0.57 | 0.537 | 0.734 | 0.662 | 0.706 | 0.506 | 0.487 | 0.913 | 0.85 | 0.76 | 0.357 | 0.167 | 0.585 | 0.613 | 0.638 | 0.474 | 0.239
5 | HOP-62 | 0.314 | 0.397 | 0.427 | 0.261 | 0.308 | 0.905 | 0.808 | 0.823 | 0.777 | 0.726 | 0.701 | 0.261 | 0.167 | 0.0427 | 0.0866 | 0.395 | 0.378 | 0.116 | 0.0547 | 0.0779
6 | HCC-44 | 0.942 | 0.877 | 0.88 | 0.983 | 0.897 | 0.53 | 0.572 | 0.5 | 0.484 | 0.292 | 0.65 | 0.527 | 0.189 | 0.168 | 0.155 | 1.04 | 0.731 | 0.726 | 0.415 | 0.376
7 | HCC-15 | 0.374 | 0.329 | 0.43 | 0.204 | 0.158 | 0.833 | 0.664 | 0.689 | 0.635 | 0.439 | 0.505 | 0.2 | 0.227 | 0.0834 | 0.0819 | 0.643 | 0.444 | 0.289 | 0.112 | 0.106
8 | NCI-H460 | 0.419 | 0.33 | 0.574 | 0.352 | 0.103 | 0.778 | 0.708 | 0.631 | 0.332 | 0.0817 | 0.886 | 0.929 | 0.689 | 0.0391 | 0.0185 | 0.679 | 0.827 | 0.797 | 0.115 | 0.0271
9 | NCI-H1299 | – | – | – | – | – | – | – | – | – | – | 0.875 | 0.825 | 0.4 | 0.252 | 0.246 | – | – | – | – | –
10 | SK-LU-1 | 0.293 | 0.357 | 0.366 | 0.321 | 0.331 | 0.444 | 0.387 | 0.339 | 0.292 | 0.213 | 0.951 | 0.802 | 0.236 | 0.182 | 0.201 | 0.581 | 0.425 | 0.161 | 0.196 | 0.244
11 | COR-L 105 | 0.355 | 0.31 | 0.402 | 0.312 | 0.264 | 0.835 | 0.776 | 0.696 | 0.62 | 0.537 | 0.802 | 0.472 | 0.344 | 0.194 | 0.222 | 0.71 | 0.709 | 0.353 | 0.232 | 0.403
12 | COR-L23 | 0.206 | 0.228 | 0.208 | 0.168 | 0.175 | 0.894 | 0.903 | 0.618 | 0.466 | 0.231 | 0.588 | 0.567 | 0.431 | 0.136 | 0.0871 | 0.414 | 0.34 | 0.195 | 0.0783 | 0.0885
13 | NCI-H3122 | 0.423 | 0.393 | 0.367 | 0.33 | 0.344 | 0.985 | 1.24 | 0.828 | 0.732 | 0.752 | 0.369 | 0.338 | 0.358 | 0.178 | 0.153 | 0.708 | 0.579 | 0.232 | 0.103 | 0.0771
14 | NCI-H23 | 0.374 | 0.374 | 0.354 | 0.624 | 0.266 | 0.843 | 0.599 | 0.671 | 0.575 | 0.435 | 0.579 | 0.481 | 0.301 | 0.122 | 0.139 | 0.521 | 0.441 | 0.197 | 0.134 | 0.142
15 | PC-3 [JPC-3] | 0.879 | 0.919 | 0.883 | 0.866 | 0.805 | 0.88 | 0.821 | 0.754 | 0.729 | 0.588 | 0.986 | 0.909 | 0.477 | 0.34 | 0.293 | 0.735 | 0.787 | 0.409 | 0.338 | 0.468
16 | NCI-H2228 | 0.254 | 0.225 | 0.273 | 0.172 | 0.15 | 0.685 | 0.63 | 0.597 | 0.64 | 0.349 | – | 0.443 | 0.4 | 0.192 | 0.226 | 0.73 | 0.601 | 0.581 | 0.13 | 0.0923
17 | A549 | – | – | – | – | – | – | – | – | – | – | 0.772 | 0.634 | 0.416 | 0.0489 | 0.0552 | – | – | – | – | –
18 | NCI-H358 | 0.105 | 0.116 | 0.133 | 0.12 | 0.122 | 1 | 0.878 | 0.8 | 0.843 | 0.611 | 0.69 | 0.506 | 0.285 | 0.168 | 0.156 | 0.621 | 0.479 | 0.264 | 0.0895 | 0.0817
